Assay results taken from ChEMBL document CHEMBL4814033, “Unique para-aminobenzenesulfonyl oxadiazoles as novel structural potential membrane active antibacterial agents towards drug-resistant methicillin resistant Staphylococcus aureus” (2021).
Values after ≈ are worked out from the molar mass of the structure shown. Active and inactive are the calls of the source. The calls are words filed in the database; no cut-off is given here.

Key:
Staphylococcus aureus [1] = assay: Antibacterial activity against methicillin-resistant Staphylococcus aureus by broth microdilution assay; assay type: functional
Klebsiella pneumoniae = assay: Antibacterial activity against Klebsiella pneumonia by broth microdilution assay; assay type: functional
Enterococcus faecalis = assay: Antibacterial activity against Enterococcus faecalis by broth microdilution assay; assay type: functional
Acinetobacter baumannii = assay: Antibacterial activity against Acinetobacter baumannii by broth microdilution assay; assay type: functional
Staphylococcus aureus [2] = assay: Antibacterial activity against Staphylococcus aureus ATCC 29213 by broth microdilution assay; assay type: functional
Escherichia coli [3] = assay: Antibacterial activity against Escherichia coli ATCC 25922 by broth microdilution assay; assay type: functional
Pseudomonas aeruginosa [4] = assay: Antibacterial activity against Pseudomonas aeruginosa by broth microdilution assay; assay type: functional
Pseudomonas aeruginosa [5] = assay: Antibacterial activity against Pseudomonas aeruginosa ATCC 27853 by broth microdilution assay; assay type: functional
Staphylococcus aureus [6] = assay: Antibacterial activity against methicillin-resistant Staphylococcus aureus assessed as reduction in bacterial growth measured after 16 passages; assay type: functional, organism-based
Staphylococcus aureus [7] = assay: Antibacterial activity against Staphylococcus aureus ATCC 25923 by broth microdilution assay; assay type: functional
Escherichia coli [8] = assay: Antibacterial activity against Escherichia coli by broth microdilution assay; assay type: functional
Staphylococcus aureus [9] = assay: Antibacterial activity against Staphylococcus aureus by broth microdilution assay; assay type: functional
Staphylococcus aureus [10] = assay: Potency index, ratio of MIC of norfloxacin to MIC of compound for antibacterial activity against methicillin-resistant Staphylococcus aureus by broth microdilution assay; assay type: functional
Calf thymus DNA [11] = assay: Binding affinity to calf thymus DNA assessed as enhancement in maximum absorption of DNA upto 26.7 uM by UV-vis absorption spectroscopy; assay type: tissue-based; conditions: Bos taurus, dose microM <=26.7
Calf thymus DNA [12] = assay: Binding affinity to calf thymus DNA assessed as red shift in absorption spectra upto 26.7 uM by UV-vis absorption spectroscopy; assay type: tissue-based; conditions: Bos taurus, dose microM <=26.7
Staphylococcus aureus [13] = assay: Antibacterial activity against methicillin-resistant Staphylococcus aureus assessed as metabolic inactivation by Alamar blue assay; assay type: functional, organism-based
Cell membrane = assay: Disruption of inner cell membrane in methicillin-resistant Staphylococcus aureus at 4 times of MIC measured within 14 mins by PI uptake assay; assay type: subcellular
Calf thymus DNA [14] = assay: Binding affinity to calf thymus DNA assessed as reduction in fluorescence intensity of DNA-AO complex by AO dye based fluorescence analysis; conditions: Bos taurus

Structure (SMILES)	MIC (Staphylococcus aureus [1]) [µg/mL]	MIC (Klebsiella pneumoniae) [µg/mL]	MIC (Enterococcus faecalis) [µg/mL]	MIC (Acinetobacter baumannii) [µg/mL]	MIC (Staphylococcus aureus [2]) [µg/mL]	MIC (Escherichia coli [3]) [µg/mL]	MIC (Pseudomonas aeruginosa [4]) [µg/mL]	MIC (Pseudomonas aeruginosa [5]) [µg/mL]	Activity (Staphylococcus aureus [6])	MIC (Staphylococcus aureus [7]) [µg/mL]	MIC (Escherichia coli [8]) [µg/mL]	MIC (Staphylococcus aureus [9]) [µg/mL]	Ratio (Staphylococcus aureus [10])	Activity (Calf thymus DNA [11])	Activity (Calf thymus DNA [12])	Activity (Staphylococcus aureus [13])	Activity (Cell membrane)	Activity (Calf thymus DNA [14])
CCn1cc(C(=O)O)c(=O)c2cc(F)c(N3CCNCC3)cc21 [NORFLOXACIN]	16 (≈ 50.1 µM)	16 (≈ 50.1 µM)	8 (≈ 25.1 µM)	8 (≈ 25.1 µM)	8 (≈ 25.1 µM)	8 (≈ 25.1 µM)	4 (≈ 12.5 µM)	8 (≈ 25.1 µM)	inactive	8 (≈ 25.1 µM)	8 (≈ 25.1 µM)	4 (≈ 12.5 µM)						
CC(=O)Nc1ccc(S(=O)(=O)Cc2nnc(SCc3ccc(F)cc3F)o2)cc1	16 (≈ 36.4 µM)	128 (≈ 291 µM)	128 (≈ 291 µM)	64 (≈ 146 µM)	32 (≈ 72.8 µM)	128 (≈ 291 µM)	64 (≈ 146 µM)	64 (≈ 146 µM)		64 (≈ 146 µM)	8 (≈ 18.2 µM)	64 (≈ 146 µM)						
CC(=O)Nc1ccc(S(=O)(=O)Cc2nnc(SCC#N)o2)cc1	256 (≈ 726 µM)	256 (≈ 726 µM)	256 (≈ 726 µM)	128 (≈ 363 µM)	256 (≈ 726 µM)	256 (≈ 726 µM)	256 (≈ 726 µM)	256 (≈ 726 µM)		256 (≈ 726 µM)	256 (≈ 726 µM)	128 (≈ 363 µM)						
CCOC(=O)CSc1nnc(CS(=O)(=O)c2ccc(NC(C)=O)cc2)o1	16 (≈ 40.1 µM)	64 (≈ 160 µM)	128 (≈ 320 µM)	32 (≈ 80.1 µM)	64 (≈ 160 µM)	128 (≈ 320 µM)	64 (≈ 160 µM)	128 (≈ 320 µM)		64 (≈ 160 µM)	32 (≈ 80.1 µM)	128 (≈ 320 µM)						
CC(=O)Nc1ccc(S(=O)(=O)Cc2nnc(SCc3ccc(Cl)cc3Cl)o2)cc1	2 (≈ 4.23 µM)	16 (≈ 33.9 µM)	128 (≈ 271 µM)	32 (≈ 67.7 µM)	32 (≈ 67.7 µM)	64 (≈ 135 µM)	64 (≈ 135 µM)	256 (≈ 542 µM)		256 (≈ 542 µM)	16 (≈ 33.9 µM)	64 (≈ 135 µM)						
C#CCSc1nnc(CS(=O)(=O)c2ccc(NC(C)=O)cc2)o1	8 (≈ 22.8 µM)	256 (≈ 728 µM)	128 (≈ 364 µM)	128 (≈ 364 µM)	32 (≈ 91.1 µM)	128 (≈ 364 µM)	64 (≈ 182 µM)	256 (≈ 728 µM)		64 (≈ 182 µM)	128 (≈ 364 µM)	64 (≈ 182 µM)						
CC(=O)Nc1ccc(S(=O)(=O)Cc2nnc(SCC3CC3)o2)cc1	8 (≈ 21.8 µM)	128 (≈ 348 µM)	64 (≈ 174 µM)	64 (≈ 174 µM)	64 (≈ 174 µM)	128 (≈ 348 µM)	64 (≈ 174 µM)	64 (≈ 174 µM)		64 (≈ 174 µM)	8 (≈ 21.8 µM)	128 (≈ 348 µM)						
CC(=O)Nc1ccc(S(=O)(=O)Cc2nnc(SCCF)o2)cc1	2 (≈ 5.56 µM)	32 (≈ 89 µM)	64 (≈ 178 µM)	64 (≈ 178 µM)	32 (≈ 89 µM)	64 (≈ 178 µM)	64 (≈ 178 µM)	128 (≈ 356 µM)		128 (≈ 356 µM)	32 (≈ 89 µM)	64 (≈ 178 µM)	8					
CCCCCCCCCCCCSc1nnc(CS(=O)(=O)c2ccc(NC(C)=O)cc2)o1	128 (≈ 266 µM)	64 (≈ 133 µM)	128 (≈ 266 µM)	256 (≈ 531 µM)	256 (≈ 531 µM)	256 (≈ 531 µM)	256 (≈ 531 µM)	256 (≈ 531 µM)		256 (≈ 531 µM)	256 (≈ 531 µM)	256 (≈ 531 µM)						
CC(=O)CSc1nnc(CS(=O)(=O)c2ccc(NC(C)=O)cc2)o1	2 (≈ 5.41 µM)	16 (≈ 43.3 µM)	64 (≈ 173 µM)	64 (≈ 173 µM)	32 (≈ 86.6 µM)	64 (≈ 173 µM)	64 (≈ 173 µM)	128 (≈ 346 µM)		128 (≈ 346 µM)	16 (≈ 43.3 µM)	64 (≈ 173 µM)						
CC(=O)Nc1ccc(S(=O)(=O)Cc2nnc(SCC(=O)O)o2)cc1	32 (≈ 86.2 µM)	64 (≈ 172 µM)	64 (≈ 172 µM)	32 (≈ 86.2 µM)	64 (≈ 172 µM)	128 (≈ 345 µM)	128 (≈ 345 µM)	128 (≈ 345 µM)		64 (≈ 172 µM)	32 (≈ 86.2 µM)	128 (≈ 345 µM)						
CCCCCCSc1nnc(CS(=O)(=O)c2ccc(NC(C)=O)cc2)o1	1 (≈ 2.52 µM)	8 (≈ 20.1 µM)	128 (≈ 322 µM)	32 (≈ 80.5 µM)	256 (≈ 644 µM)	128 (≈ 322 µM)	256 (≈ 644 µM)	256 (≈ 644 µM)	Active	256 (≈ 644 µM)	256 (≈ 644 µM)	256 (≈ 644 µM)	16	Active	Active	Active	Active	Active
CC(=O)Nc1ccc(S(=O)(=O)Cc2nnc(S)o2)cc1	256 (≈ 817 µM)	256 (≈ 817 µM)	128 (≈ 408 µM)	256 (≈ 817 µM)	256 (≈ 817 µM)	256 (≈ 817 µM)	256 (≈ 817 µM)	256 (≈ 817 µM)		256 (≈ 817 µM)	256 (≈ 817 µM)	256 (≈ 817 µM)						
CCCCSc1nnc(CS(=O)(=O)c2ccc(NC(C)=O)cc2)o1	256 (≈ 693 µM)	256 (≈ 693 µM)	256 (≈ 693 µM)	256 (≈ 693 µM)	256 (≈ 693 µM)	256 (≈ 693 µM)	256 (≈ 693 µM)	256 (≈ 693 µM)		256 (≈ 693 µM)	128 (≈ 346 µM)	128 (≈ 346 µM)						
CC(=O)Nc1ccc(S(=O)(=O)Cc2nnc(SCCO)o2)cc1	32 (≈ 89.5 µM)	16 (≈ 44.8 µM)	32 (≈ 89.5 µM)	64 (≈ 179 µM)	32 (≈ 89.5 µM)	64 (≈ 179 µM)	32 (≈ 89.5 µM)	128 (≈ 358 µM)		32 (≈ 89.5 µM)	32 (≈ 89.5 µM)	64 (≈ 179 µM)						
C=CCSc1nnc(CS(=O)(=O)c2ccc(NC(C)=O)cc2)o1	256 (≈ 724 µM)	256 (≈ 724 µM)	64 (≈ 181 µM)	256 (≈ 724 µM)	256 (≈ 724 µM)	256 (≈ 724 µM)	256 (≈ 724 µM)	256 (≈ 724 µM)		256 (≈ 724 µM)	256 (≈ 724 µM)	256 (≈ 724 µM)						
CCN(CC)CCSc1nnc(CS(=O)(=O)c2ccc(NC(C)=O)cc2)o1	32 (≈ 77.6 µM)	128 (≈ 310 µM)	64 (≈ 155 µM)	32 (≈ 77.6 µM)	64 (≈ 155 µM)	128 (≈ 310 µM)	128 (≈ 310 µM)	64 (≈ 155 µM)		64 (≈ 155 µM)	64 (≈ 155 µM)	128 (≈ 310 µM)						
